Source: patent US20090099167A1, “Organic compounds” (Novartis Institutes for Biomedical Research, priority 2004, published 2009)

Assays:
Assay type in all cases: biochemical
c-Src kinase = c-Src kinase (Homo sapiens, UniProt P12931); experiment: c-Src kinase inhibition; settings: Table 4; read-out: s-Scr, activity (IC50 for kinase inhibition)
Description: An appropriate assay is described in Andrejauskas-Buchdunger et al., Cancer Res. 52, 5353-8 (1992).

[1] = molecular target: T1, human insulin receptor (Ins-R) (Homo sapiens, UniProt P06213); experiment: Ins-R tyrosine kinase assay, GST-Ins-R; settings: Table 4; read-out: Ins-R, activity (IC50 for kinase inhibition)
T1 construct: encoding the amino acid region 919-1343 of the intra-cytoplasmic kinase domain of the human insulin receptor; made in house; host or cells: baculovirus (Bac-to-Bac)
Description: The inhibition of IGF-1R and Ins-R can be determined as follows: The baculovirus donor vector pfbgx3IGFIRcd is used to generate a recombinant baculovirus that expresses the amino acid region 950-1337 of the mature peptide cytoplasmic domain of the human IGF-IR. To generate the cDNA fragment encoding the amino acid region 919-1343 of the intra-cytoplasmic kinase domain of the human insulin receptor, pC5hInsR is used. The fragments of the human IGF-IR and Ins-R are cloned, expressed and small-scale purified as a factor Xa-cleavable glutathione-S-transferase (GST)-fusion protein using the Bac-to-Bac™ system (GIBCO BRL) of recombinant baculovirus generation. Virus containing media is collected from the transfected cell culture and used for infection to increase its titer. Virus containing media obtained after two rounds of infection is used for large-scale protein expression. Cell extracts are prepared and loaded onto a glutathione-Sepharose (Pharmacia) column. After washing, the GST-tagged proteins are then eluted with a glutathione-containing buffer. Purified protein is stored at −70° C. in elution buffer. Tyrosine protein kinase assays with purified GST-IGF-1R and GST-ins-R are carried in a final volume of 30 μl containing 20 mM Tris-HCl, pH 7.6, 10 mM MgCl2, 0.01 mM Na3VO4, 1% DMSO, 1 mM DTT, 3 μg/ml poly(Glu,Tyr) 4:1 and 10 μM ATP (γ-[^33P]-ATP 0.1 μCi). The assay is performed in 96-well plates at ambient temperature for 20 min and terminated by addition of 25 μl 0.05 M EDTA pH 7.0. An aliquot of 40 μl is spotted with a multichannel dispenser on Whatman P81 membranes mounted in a Millipore Microtiter filter manifold connected to a low vacuum source. After elimination of liquid, the membrane is transferred to a sequence of 4 washing baths containing 0.5% H3PO4 and one with EtOH (shaking incubation for 10 min each), dried, mounted onto a Hewlett Packard TopCount manifold added 10 μl Microscint® and counted. Compounds of formula (I) show up to 90% inhibition of Ins-R at 10,000 nM, preferably between 60-90% inhibition. The inhibition of Tek can be determined as follows: The procedure of the expression, purification and assay these kinases has been described. Fabbro et al., Pharmacol. Ther. 82(2-3) 293-301 (1999). In brief, the glutathione S-transferase (GST) gene from the pAcG1 vector (Pharmingen) is excised with EcoRV and EcoRI and inserted into the cloning site of the Fast-Bac baculoviral vector (GIBCO) creating a 5530 bp vector with N-terminal cloning sites derived from the pAcG1 fusion vector (FBG0). The C-terminal cloning site may be any cloning site (from the Fast-Bac vector) downstream of the N-terminal cloning site used. N-terminally GST-fused (pAcG1, Pharmingen) KDR, Flt-1, Flk-1, Tek and PDGFR-β kinase domains are obtained from ProQinase, Freiburg, Germany. Tek is recloned into the FBG1 vector by EcoRI excision and ligation into EcoRI digested FBG1 (FBG1-Tek). The coding sequences for the whole cytoplasmic domain of c-Kit (aa 544-976) and c-Fms (aa 538-972) are amplified by PCR from human uterus and from human bone marrow cDNA libraries (Clontech), respectively. The amplified DNA fragments are fused to GST by cloning them into FBG1 as BamHI-EcoRI insertions, to yield FBG1-c-Kit and FBG1-c-Fms. Tek is recloned into the FBG0 transfer vector by EcoRI excision and ligation into EcoRI digested FBG0 (FBG-Tie2/Tek). FGFR-1 and c-met kinase domains are obtained by PCR from human A431 cells. N-terminal primers contain an overhanging EcoRI site, while C-terminal primers contain a XhoI site to aid cloning into the transfer vectors. After digestion of both the PCR fragments and FBG0 the cleavage products are gel-purified and ligated together to form the kinase constructs (FBG-Met, FBG-FGFR-1).

c-Abl kinase = molecular target: T2, c-Abl kinase (Homo sapiens, UniProt P00519); experiment: c-Abl protein-tyrosine kinase filter binding assay; settings: Table 4; read-out: c-abl, activity (IC50 for kinase inhibition)
T2 construct: The His-tagged kinase domain of c-Abl is cloned and expressed in the baculovirus/Sf9 system; His; made in house; host or cells: Sf9 (baculovirus)
T2 sequence (P00519 242-493 limits assumed): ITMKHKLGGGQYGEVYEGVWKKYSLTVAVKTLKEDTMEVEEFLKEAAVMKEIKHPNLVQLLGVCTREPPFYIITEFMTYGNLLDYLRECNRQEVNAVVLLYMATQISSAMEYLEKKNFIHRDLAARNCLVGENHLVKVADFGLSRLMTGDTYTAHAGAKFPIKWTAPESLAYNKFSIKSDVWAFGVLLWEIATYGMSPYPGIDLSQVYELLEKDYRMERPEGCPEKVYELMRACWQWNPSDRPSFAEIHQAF
Procedure: The His-tagged kinase domain of c-Abl is cloned and expressed in the baculovirus/Sf9 system as described by Bhat et al. in J. Biol. Chem. 1997; 272:16170-16175. A protein of 37 kD (c-Abl kinase) is purified by a two-step procedure over a Cobalt metal chelate column followed by an anion exchange column with a yield of 1-2 mg/L of Sf9 cells (Bhat et al., reference cited). The purity of the c-Abl kinase is >90% as judged by SDS-PAGE after Coomassie blue staining. The assay contains (total volume of 30 μL): c-Abl kinase (50 ng), 20 mM Tris.HCl, pH 7.5, 10 mM MgCl2, 10 μM Na3VO4, 1 mM DTT and 0.06 μCi/assay [γ^33 P]-ATP (5 μM ATP) using 30 μg/mL poly-Ala,Glu,Lys,Tyr-6:2:5:1 (Poly-AEKY, Sigma P1152) in the presence of 1% DMSO. Reactions are terminated by adding 10 μL of 250 mM EDTA and 30 μL of the reaction mixture is transferred onto Immobilon-PVDF membrane (Millipore, Bedford, Mass., USA) previously soaked for 5 min with methanol, rinsed with water, then soaked for 5 min with 0.5% H3PO4 and mounted on vacuum manifold with disconnected vacuum source. After spotting all samples, vacuum is connected and each well rinsed with 200 μL 0.5% H3PO4. Membranes are removed and washed on a shaker with 0.5% H3PO4 (4 times) and once with ethanol. Membranes are counted after drying at ambient temperature, mounting in Packard TopCount 96-well frame, and addition of 10 μL/well of Microscint™ (Packard).

human Flt-3 = molecular target: T3, human Flt-3 (Homo sapiens, UniProt P36888); experiment: Flt3 kinase inhibition, GST-Flt-3, 33P incorporation into poly(Glu,Tyr); settings: Table 4; read-out: Flt-3, activity (IC50 for kinase inhibition)
T3 construct: expressing the amino acid region amino acids 563-993 of the cytoplasmic kinase domain of human Flt-3; made in house; host or cells: Sf9 (baculovirus)
T3 sequence (P36888 563-993): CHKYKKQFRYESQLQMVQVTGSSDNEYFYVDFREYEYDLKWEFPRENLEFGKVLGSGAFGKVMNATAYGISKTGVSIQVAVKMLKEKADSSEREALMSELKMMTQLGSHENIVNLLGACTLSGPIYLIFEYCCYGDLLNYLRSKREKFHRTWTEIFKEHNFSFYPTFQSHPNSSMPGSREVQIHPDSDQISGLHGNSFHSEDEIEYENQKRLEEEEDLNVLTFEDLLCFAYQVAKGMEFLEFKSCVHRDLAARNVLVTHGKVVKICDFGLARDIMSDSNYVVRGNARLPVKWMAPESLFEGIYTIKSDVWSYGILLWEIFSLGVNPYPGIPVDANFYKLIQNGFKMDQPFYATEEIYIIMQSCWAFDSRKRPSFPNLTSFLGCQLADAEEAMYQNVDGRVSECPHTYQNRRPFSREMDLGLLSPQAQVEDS
Procedure: The compounds to be tested are then diluted in culture medium (without FCS, with 0.1% bovine serum albumin) and added to the cells. (Controls comprise medium without test compounds). After two hours' incubation at 37° C., recombinant VEGF is added; the final VEGF concentration is 20 ng/ml). After a further five minutes incubation at 37° C., the cells are washed twice with ice-cold PBS (phosphate-buffered saline) and immediately lysed in 100 μl lysis buffer per well. The lysates are then centrifuged to remove the cell nuclei, and the protein concentrations of the supernatants are determined using a commercial protein assay (BIORAD). The lysates can then either be immediately used or, if necessary, stored at −20° C. A sandwich ELISA is carried out to measure the VEGF-R2 phosphorylation: a monoclonal antibody to VEGF-R2 (for example Mab 1495.12.14; ProQinase, Freiburg, Germany) is immobilized on black ELISA plates (OptiPlate™ HTRF-96 from Packard). The plates are then washed and the remaining free protein-binding sites are saturated with 3% TopBlock® (Juro, Cat. # TB232010) in phosphate buffered saline with Tween 20® (polyoxyethylen(20)-sorbitane monolaurate, ICI/Uniquema) (PBST). The cell lysates (20 μg protein per well) are then incubated in these plates overnight at 4° C. together with an antiphosphotyrosine antibody coupled with alkaline phosphatase (PY20:AP from Zymed). […] The luminescence is measured in a Packard Top Count Microplate Scintillation Counter. The difference between the signal of the positive control (stimulated with VEGF) and that of the negative control (not stimulated with VEGF) corresponds to VEGF-induced VEGF-R2 phosphorylation (=100%). The activity of the tested substances is calculated as percent inhibition of VEGF-induced VEGF-R2 phosphorylation, wherein the concentration of substance that induces half the maximum inhibition is defined as the IC50 (inhibitory dose for 50% inhibition). […] Flt3 kinase inhibition is determined as follows: The baculovirus donor vector pFbacG01 (GIBCO) is used to generate a recombinant baculovirus expressing the amino acid region amino acids 563-993 of the cytoplasmic kinase domain of human Flt-3. The coding sequence for the cytoplasmic domain of Flt-3 is amplified by PCR from human c-DNA libraries (Clontech). The amplified DNA fragments and the pFbacG01 vector are made compatible for ligation by digestion with BamH1 and HindIII. Ligation of these DNA fragments results in the baculovirus donor plasmid Flt-3(1.1). The production of the viruses, the expression of proteins in Sf9 cells and the purification of the GST-fused proteins are performed as follows: Production of virus: Transfer vector (pFbacG01-Flt-3) containing the Flt-3 kinase domain is transfected into the DH10Bac cell line (GIBCO) and the transfected cells are plated on selective agar plates. Colonies without insertion of the fusion sequence into the viral genome (carried by the bacteria) are blue. Single white colonies are picked and viral DNA (bacmid) is isolated from the bacteria by standard plasmid purification procedures. Sf9 or Sf21 cells (American Type Culture Collection) are then transfected in flasks with the viral DNA using Cellfectin reagent. Determination of small scale protein expression in Sf9 cells: Virus containing media is collected from the transfected cell culture and used for infection to increase its titre. Virus containing media obtained after two rounds of infection is used for large-scale protein expression. For large-scale protein expression 100 cm^2 round tissue culture plates are seeded with 5×10^7 cells/plate and infected with 1 mL of virus-containing media (approx. 5 MOIs). After 3 days the cells are scraped off the plate and centrifuged at 500 rpm for 5 min. Cell pellets from 10-20, 100 cm^2 plates, are resuspended in 50 mL of ice-cold lysis buffer (25 mMTris-HCl, pH 7.5, 2 mM EDTA, 1% NP-40, 1 mM DTT, 1 mM PMSF). The cells are stirred on ice for 15 min and then centrifuged at 5000 rpms for 20 min. […]

Sequence of c-Src kinase (P12931 whole entry): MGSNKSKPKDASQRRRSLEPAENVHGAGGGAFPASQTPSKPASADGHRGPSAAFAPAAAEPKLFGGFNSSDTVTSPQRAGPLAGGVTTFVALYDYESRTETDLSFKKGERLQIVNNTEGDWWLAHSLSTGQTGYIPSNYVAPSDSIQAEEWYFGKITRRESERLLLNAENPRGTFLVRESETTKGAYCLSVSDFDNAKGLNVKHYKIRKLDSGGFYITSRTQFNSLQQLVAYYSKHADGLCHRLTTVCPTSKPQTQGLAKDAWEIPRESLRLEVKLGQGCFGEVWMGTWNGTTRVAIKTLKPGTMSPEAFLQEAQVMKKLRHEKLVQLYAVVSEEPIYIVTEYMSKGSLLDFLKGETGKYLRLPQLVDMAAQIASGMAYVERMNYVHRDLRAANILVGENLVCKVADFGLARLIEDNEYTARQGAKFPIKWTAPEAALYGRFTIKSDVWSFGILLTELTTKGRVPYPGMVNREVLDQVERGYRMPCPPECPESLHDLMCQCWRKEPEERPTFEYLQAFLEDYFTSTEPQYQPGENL
T1 sequence (P06213 958-1382 limits assumed): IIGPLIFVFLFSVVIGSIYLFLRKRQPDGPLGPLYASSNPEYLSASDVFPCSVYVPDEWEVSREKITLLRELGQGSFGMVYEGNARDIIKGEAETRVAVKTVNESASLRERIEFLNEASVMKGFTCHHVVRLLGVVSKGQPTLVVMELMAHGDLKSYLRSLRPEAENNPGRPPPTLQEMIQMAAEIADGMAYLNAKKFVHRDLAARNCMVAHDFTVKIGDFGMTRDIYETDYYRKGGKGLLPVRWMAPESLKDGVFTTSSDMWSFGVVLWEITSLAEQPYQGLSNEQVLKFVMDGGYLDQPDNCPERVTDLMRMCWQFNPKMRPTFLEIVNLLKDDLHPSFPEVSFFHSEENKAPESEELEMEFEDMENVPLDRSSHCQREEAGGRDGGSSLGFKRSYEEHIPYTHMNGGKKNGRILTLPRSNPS

IC50 (c-Src kinase) [µM] | Structure (SMILES) | further results
< 10 | CN1CCN(c2ccc(-c3cnn4c(N)c(-c5ccccc5)cnc34)cc2)CC1 [Example 7, 3-[4-(4-Methyl-piperazin-1-yl)-phenyl]-6-phenyl-pyrazolo[1,5-a]pyrimidin-7-ylamine] | 
 | Nc1c(-c2c(Cl)cccc2Cl)cnc2c(-c3ccccc3)cnn12 [Example 16, 6-(2,6-Dichloro-phenyl)-3-phenyl-pyrazolo[1,5-a]pyrimidin-7-ylamine] | IC50 [1]: < 10 µM
< 10 | CN1CCN(c2ccc(-c3cnn4c(N)c(-c5csc6ccccc56)cnc34)cc2)CC1 [Example 19, 6-Benzo[b]thiophen-3-yl-3-[4-(4-methyl-piperazin-1-yl)-phenyl]-pyrazolo[1,5-a]pyrimidin-7-ylamine] | IC50 (c-Abl kinase): < 10 µM
< 10 | COc1ccccc1-c1cnc2c(-c3ccc(N4CCN(C)CC4)cc3)cnn2c1N [Example 27, 6-(2-Methoxy-phenyl)-3-[4-(4-methyl-piperazin-1-yl)-phenyl]-pyrazolo[1,5-a]pyrimidin-7-ylamine] | 
 | CN1CCN(c2cccc(-c3cnn4c(N)c(-c5ccsc5)cnc34)c2)CC1 [Example 49, 3-[3-(4-Methyl-piperazin-1-yl)-phenyl]-6-thiophen-3-yl-pyrazolo[1,5-a]pyrimidin-7-ylamine] | IC50 (human Flt-3): < 10 µM
